These results are taken from ChEMBL document CHEMBL1201862, “PubChem BioAssay data set” (2004).

Some test systems named below: HOP-92; Hs-578T; SK-MEL-2; UO-31; NCI/ADR-RES; SW-620; KM12; IGROV-1; A498; DU-145; CAKI-1; UACC-62; Malme-3M; HT-29; EKVX; MCF7; NCI-H226; NCI-H522; OVCAR-4; A549.
Common to all, as to experiment: DTP human tumour cell line panel, 48 h

Molecules are shown by their SMILES.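 Protocol summary: plate cells (96-well), add compound at 5 concentrations, incubate 48 h, interpolate endpoints linearly. GI50: concentration for 50% inhibition of growth.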 Calls of active or inactive are those of the source. Cut-off read from the data, not from the text of the source: active = GI50 up to about 1.1 µM and inactive = higher.

Turning to `c1ccc2c(c1)Nc1ccccc1[P+]21c2ccccc2Nc2ccccc21`, the GI50 in the test with HOP-92 was 0.123 µM (active); with Hs-578T, 0.0723 µM (active); in the test with SK-MEL-2, 0.199 µM (active); with UO-31, 5.46 µM (inactive); with NCI/ADR-RES it was 69.2 µM (inactive); with SW-620, 0.279 µM (active). The GI50 with KM12 was 0.0845 µM (active); with IGROV-1 it was 0.27 µM (active); in the test on A498, 0.318 µM (active); with DU-145, 0.318 µM (active); in the test on CAKI-1, 1.61 µM (inactive); in the test with UACC-62, 0.143 µM (active). In addition, the concentration for 50% growth inhibition (GI50) was 0.207 µM (active) with Malme-3M; 0.0853 µM (active) in the test with HT-29; 0.312 µM (active) with EKVX; 0.489 µM (active) in the test with MCF7; 0.0964 µM (active) in the test on NCI-H226; 0.179 µM (active) with NCI-H522. For the same compound, the GI50 is 0.447 µM (active) in the test with OVCAR-4 and 0.182 µM (active) in the test on A549.

As for `CC(=O)OC1CCC2(C)C(=CC(C3C=C4CC(OC(C)=O)CCC4(C)C4=C3C3CC5OC6(CCC(C)CO6)C(C)C5C3(C)CC4)C3=C2CCC2(C)C3CC3OC4(CCC(C)CO4)C(C)C32)C1` (stereo not given), the GI50 in the test with HOP-92 is 14.1 µM (inactive); with Hs-578T it was 2.61 µM (inactive); in the test with SK-MEL-2, 16.5 µM (inactive); in the test on UO-31, 15.5 µM (inactive); in the test with NCI/ADR-RES, 17.2 µM (inactive); in the test with KM12 it was 18.2 µM (inactive). Also, the GI50 is 11.5 µM (inactive) in the test on IGROV-1; 17.1 µM (inactive) in the test with A498; 14.2 µM (inactive) with DU-145; 18.2 µM (inactive) in the test on CAKI-1; 13.4 µM (inactive) in the test on UACC-62; 13.6 µM (inactive) in the test on Malme-3M. The GI50 was 14 µM (inactive) with HT-29; 17.9 µM (inactive) in the test on EKVX; 10.3 µM (inactive) in the test on MCF7; 23 µM (inactive) in the test with NCI-H226; 6.17 µM (inactive) in the test with NCI-H522; 14 µM (inactive) with OVCAR-4. The GI50 in the test on A549 was 13.7 µM (inactive).

With `CC(C)=C[C@H]1C[C@H](C)[C@H]2CC[C@H](C)c3c2c1c(C)c1ncoc31`, the GI50 was 16.6 µM (inactive) in the test on HOP-92; 17.6 µM (inactive) in the test on Hs-578T; 14.9 µM (inactive) in the test with SK-MEL-2; 17.6 µM (inactive) in the test with UO-31; 17 µM (inactive) in the test with NCI/ADR-RES; 15.3 µM (inactive) in the test on SW-620. Besides, the GI50 in the test on KM12 is 17.7 µM (inactive); in the test on IGROV-1, 13.9 µM (inactive); with A498 it was 19.9 µM (inactive); in the test with DU-145 it was 18 µM (inactive); in the test with CAKI-1, 18.7 µM (inactive); in the test with UACC-62 it was 18.3 µM (inactive). In addition, the GI50 was 13.5 µM (inactive) in the test with Malme-3M; 15.9 µM (inactive) with EKVX; 15 µM (inactive) in the test with MCF7; 16.8 µM (inactive) in the test with NCI-H226; 16 µM (inactive) in the test on NCI-H522; 19.2 µM (inactive) in the test on OVCAR-4. Moreover, in the test on A549, the GI50 was 14.9 µM (inactive).

Regarding `CC1CSC(=S)N1C(=O)N1C(=S)SCC1C` (stereo not given), the GI50 was 27.7 µM (inactive) in the test on HOP-92; 35.7 µM (inactive) with Hs-578T; 21.3 µM (inactive) in the test on SK-MEL-2; 22.8 µM (inactive) in the test with UO-31; 19.1 µM (inactive) in the test on NCI/ADR-RES; 20.4 µM (inactive) with SW-620. Besides, the GI50 in the test with KM12 was 27.8 µM (inactive); with IGROV-1 it was 18.5 µM (inactive); with A498, 27.5 µM (inactive); in the test with DU-145 it was 19.5 µM (inactive); with CAKI-1, 20.4 µM (inactive); in the test on UACC-62, 14.7 µM (inactive). Further, the GI50 in the test on Malme-3M is 17.1 µM (inactive); with HT-29, 27.4 µM (inactive); in the test with EKVX, 28.8 µM (inactive); in the test with MCF7 it was 21.2 µM (inactive); in the test with NCI-H226, 26.5 µM (inactive); in the test with NCI-H522, 11.5 µM (inactive). Further, the GI50 with A549 was 35.6 µM (inactive).

For the compound `COc1ccc(C2CC(c3c(C)nn(-c4ccccc4)c3-c3ccc(C)cc3O)=NN2c2ccccc2)cc1` (stereo not given), the GI50 is > 100 µM (inactive) in the test with HOP-92; 10.4 µM (inactive) in the test on Hs-578T; 14.1 µM (inactive) with SK-MEL-2; 24.7 µM (inactive) in the test with UO-31; 21.9 µM (inactive) with NCI/ADR-RES; 20.5 µM (inactive) with SW-620. For the same compound, the GI50 in the test on KM12 is 3.33 µM (inactive); in the test with IGROV-1 it was 49.3 µM (inactive); with A498, > 100 µM (inactive); with DU-145, > 79.3 µM (inactive); in the test on CAKI-1, 38.9 µM (inactive); with UACC-62, 23 µM (inactive). Besides, the GI50 is 19.9 µM (inactive) in the test with Malme-3M; > 33.5 µM (inactive) in the test on EKVX; 8.07 µM (inactive) with MCF7; > 24 µM (inactive) in the test on NCI-H226; 24.8 µM (inactive) in the test with NCI-H522; > 45.7 µM (inactive) in the test with OVCAR-4. Also, the GI50 in the test on A549 was 4.35 µM (inactive).

With `O=[N+]([O-])c1ccc(Cl)cc1C1ON=C(c2ccccc2)N1C12CC3CC(CC(C3)C1)C2` (stereo not given), the GI50 with HOP-92, with Hs-578T, in the test with SK-MEL-2, in the test with UO-31, with NCI/ADR-RES and in the test on IGROV-1 was > 100 µM (inactive) each time. For the same compound, the GI50 in the test on A498 was > 100 µM (inactive); in the test on DU-145, > 100 µM (inactive); in the test on CAKI-1 it was > 100 µM (inactive); in the test on UACC-62, > 100 µM (inactive); in the test with Malme-3M, 49.4 µM (inactive); in the test on HT-29, > 100 µM (inactive). For the same compound, the GI50 in the test with EKVX is > 100 µM (inactive); in the test with MCF7, > 100 µM (inactive); with NCI-H226, 64.3 µM (inactive); with NCI-H522, > 100 µM (inactive); in the test on OVCAR-4 it was > 100 µM (inactive); in the test with A549 it was > 100 µM (inactive).

Consider `CN(/N=C/c1ccc(Cl)c(Cl)c1)C1=NCCN1`, for which the GI50 with HOP-92 was 21.7 µM (inactive); with Hs-578T, 18.1 µM (inactive); in the test on SK-MEL-2 it was 18.5 µM (inactive); in the test on NCI/ADR-RES, 37.6 µM (inactive); in the test with SW-620, 16 µM (inactive); in the test with KM12 it was 28.1 µM (inactive). Also, the GI50 is 27.1 µM (inactive) in the test on IGROV-1; 12.1 µM (inactive) in the test on A498; 48.6 µM (inactive) in the test with DU-145; 17.3 µM (inactive) with CAKI-1; 18.6 µM (inactive) with UACC-62; 18.8 µM (inactive) in the test on Malme-3M. Further, the GI50 with HT-29 is 25.2 µM (inactive); in the test with EKVX, 59 µM (inactive); in the test on MCF7, 22.9 µM (inactive); with NCI-H226, 27.1 µM (inactive); in the test on NCI-H522 it was 13.8 µM (inactive); in the test with OVCAR-4, 41.2 µM (inactive). For the same compound, in the test with A549, the GI50 was 33.4 µM (inactive).

Regarding `Cc1ccc2c(c1)CN(C(=O)CCC(=O)OCc1ccccc1)c1ccc(C)cc1CN2C(=O)CCC(=O)OCc1ccccc1`, the GI50 in the test on HOP-92 was 82.2 µM (inactive); with Hs-578T, 40 µM (inactive); in the test with SK-MEL-2, > 100 µM (inactive); in the test on NCI/ADR-RES it was > 100 µM (inactive); with SW-620, > 100 µM (inactive); with KM12 it was 99.3 µM (inactive). Moreover, the GI50 with IGROV-1, in the test on A498, with DU-145, in the test on CAKI-1, with UACC-62 and in the test on Malme-3M was > 100 µM (inactive) throughout. The GI50 in the test with HT-29 was > 100 µM (inactive); in the test with EKVX, > 100 µM (inactive); in the test on MCF7, 9.25 µM (inactive); in the test with NCI-H226, > 100 µM (inactive); in the test on NCI-H522, > 100 µM (inactive); with OVCAR-4 it was > 100 µM (inactive). Further, the GI50 with A549 was > 100 µM (inactive).

`O=S(=O)(c1ccc(/N=C2\NC(c3ccc(O)cc3)(c3ccccc3O)c3ccccc32)cc1)c1ccc(/N=C2/NC(c3ccc(O)cc3)(c3ccccc3O)c3ccccc32)cc1` (stereo not given): the GI50 in the test on HOP-92 was 3.91 µM (inactive); in the test on Hs-578T, 3.4 µM (inactive); with SK-MEL-2 it was 3.73 µM (inactive); in the test with UO-31 it was 21.5 µM (inactive); in the test with NCI/ADR-RES, 24.7 µM (inactive); in the test on KM12, 2.48 µM (inactive). Moreover, the GI50 was 2.68 µM (inactive) in the test on IGROV-1; 11.9 µM (inactive) in the test with A498; 4.65 µM (inactive) in the test on DU-145; 12.9 µM (inactive) with CAKI-1; 3.85 µM (inactive) in the test with UACC-62; 2.32 µM (inactive) with Malme-3M. In addition, the GI50 was 3.09 µM (inactive) in the test with HT-29; 5.96 µM (inactive) in the test on EKVX; 3.95 µM (inactive) in the test with MCF7; 2.5 µM (inactive) with NCI-H226; 2.02 µM (inactive) in the test on NCI-H522; 2.87 µM (inactive) with OVCAR-4. For the same compound, in the test on A549, the GI50 is 6.15 µM (inactive).

On to `C1CCN(CCC2CCCCN2)CC1` (stereo not given), for which the GI50 with HOP-92, in the test on Hs-578T, in the test with SK-MEL-2, with NCI/ADR-RES, with SW-620 and in the test with KM12 was > 100 µM (inactive) each time. Besides, the GI50 in the test with IGROV-1, in the test with A498, in the test on DU-145, with CAKI-1, in the test with UACC-62 and with Malme-3M was > 100 µM (inactive) each time. In addition, the GI50 in the test with HT-29, with EKVX, in the test on MCF7, with NCI-H226, in the test on NCI-H522 and in the test on OVCAR-4 was > 100 µM (inactive) in each case. Also, the GI50 in the test with A549 was > 100 µM (inactive).

By GI50 is commonly meant the concentration at which growth is held to half of that of the control.
